{"source": "BindingDB's records for doi:10.1021/acs.jmedchem.6b01578", "about": "(University of Bologna, 2017)", "note": "Values joined by “and” are separate entries in the source; they are usually repeats but may differ in a detail not shown here. Identical values can stand only once."}
{"assay": "Agonist activity at recombinant human CB1 receptor expressed in CHO-K1 cells assessed as increase in cAMP accumulation after 20 mins by HTRF assay"}
{"smiles": "CCCCCCC(C)(C)c1ccc2c(c1)OC(C)(C)[C@@H]1CCC(CO)=C[C@@H]21", "EC50": "1.2 nM"}
{"smiles": "CCCCCc1cc(O)c2c(c1)OC(C)(C)[C@@H]1CCC(C)=C[C@@H]21", "note": "[(10R,10aR)-6,6,9-Trimethyl-3-pentyl-6a,7,8,10a-tetrahydro-6H-benzo[c]chromen-1-ol]", "EC50": "10 nM"}
{"smiles": "CCCC(C)(C)c1ccc2c(c1)OC(C)(C)[C@@H]1CCC(C)=C[C@@H]21", "EC50": "667 nM"}
{"smiles": "COc1cc(OC(=O)NCCCCN2CCN(c3cccc(Cl)c3Cl)CC2)ccc1-c1ccccc1", "EC50": "220 nM and 219 nM"}
{"smiles": "COc1ccccc1N1CCN(CCCCNC(=O)Oc2ccc3c(c2)[nH]c2ccccc23)CC1", "EC50": "2300 nM and 2340 nM"}
